*1 amine or outer side, *2 acyl side, *3 side chain or, on linkers, in order; H or OH if unused. Where a SMILES comes first, the peptide text is derived from it. Bridges are numbered along the chain shown (N, C = ends). [ ]: non-standard residue; d: D form. The star is where a group is joined. ξ: configuration not given here. Phe(3-OMe,4-CONHMs) = COc1cc(C[C@H](N)C(=O)O)ccc1C(=O)NS(C)(=O)=O; NMeHph(3-OMe-4-CONHMe) = CNC(=O)c1ccc(CC[C@H](NC)C(=O)O)cc1OC; NMeAbu(3,3-F2-piperidino) = CN[C@@H](CCN1CCCC(F)(F)C1)C(=O)O; Glu(NHSO2Me) = CS(=O)(=O)NC(=O)CC[C@H](N)C(=O)O; NMePhe(3-Cl) = CN[C@@H](Cc1cccc(Cl)c1)C(=O)O; X12 = O=C([C@H](CCCC(O)C(F)(F)F)N[*:1])[*:2]; Tyr(3-F) = N[C@@H](Cc1ccc(O)c(F)c1)C(=O)O; NMehPhe = CN[C@@H](CCc1ccccc1)C(=O)O; Ethyl(2-morpholino) = C1CN(CC*)CCO1; X9 = O=C([C@@H](CN[*:1])COCCO)[*:2]; X7 = O=C(C[C@H](COCCO)N[*:1])[*:2]; X6 = O=C([C@H](CCCCO)N[*:1])[*:2]; NMeF = CN[C@@H](Cc1ccccc1)C(=O)O; NMeI = CC[C@H](C)[C@H](NC)C(=O)O; NMeβAla = CN(CCC(=O)[*:2])[*:1]; Butyl(3-Me,3-OH) = CC(C)(O)CC*; NMeL = CN[C@@H](CC(C)C)C(=O)O; Propyl(2R-OH) = C[C@@H](O)C*; NMeV = CN[C@H](C(=O)O)C(C)C; ξIle = CC[C@H](C)C(N)C(=O)O; NMeAbu = CC[C@H](NC)C(=O)O; NMeA = CN[C@@H](C)C(=O)O; Piperidide = C1CCN(*)CC1; CH2CMe2OH = CC(C)(O)C*; CH2CONHMe = CNC(=O)C*; NBuGly = CCCCNCC(=O)O; Isopentyl = CC(C)CC*; NPrGly = CCCNCC(=O)O; ξS = NC(CO)C(=O)O; X3 = C[C@H](O)C*; Sar = CNCC(=O)O; tBu = CC(C)(C)*
Assay: in vitro
Settings: human, Caco-2, Caco-2

Row | Structure (SMILES) | Papp [×10⁻⁶ cm/s]
1 | CCCCN1CC(=O)N(C)[C@@H](CC(C)C)C(=O)N[C@H](C(=O)N2CCCCC2)CC(=O)N(C)[C@@H](CC)C(=O)NC(COCCN2CCOCC2)C(=O)N(C)[C@@H](CC(C)C)C(=O)N(C)[C@@H](CC)C(=O)N[C@@H](C(C)C)C(=O)N(C)[C@@H](Cc2ccccc2)C(=O)N(C)[C@@H](CC(C)C)C(=O)N[C@@H]([C@@H](C)O)C1=O (stereo partly drawn) [pd483] ([NMeAbu][ξS](Ethyl(2-morpholino))[NMeL][NMeAbu]V[NMeF][NMeL]T[NBuGly][NMeL]D-Piperidide; lactam N-11) | 1.9
2 | CCCCN1CC(=O)N(C)[C@@H](CC(C)C)C(=O)N[C@@H](CCC(=O)NS(C)(=O)=O)C(=O)N(C)[C@@H](Cc2cccc(Cl)c2)C(=O)N(C)[C@@H](C(C)C)C(=O)N[C@H](C(=O)N2CCCCC2)CC(=O)N[C@H](CC(C)C)C(=O)N(C)[C@@H](Cc2cccc(Cl)c2)C(=O)N[C@@H](CC(C)C)C(=O)N(C)[C@@H](CC(C)C)C(=O)N[C@@H]([C@@H](C)O)C1=O [pd60] ([dL][NMePhe(3-Cl)]L[NMeL]T[NBuGly][NMeL][Glu(NHSO2Me)][NMePhe(3-Cl)][NMeV]D-Piperidide; lactam N-11) | 0.01
3 | CCCCN1CC(=O)N(C)[C@@H](CCN2CCCC(F)(F)C2)C(=O)N[C@H](C(=O)N2CCCCC2)CC(=O)N(C)[C@@H](C)C(=O)N[C@@H](CC(C)C)C(=O)N(C)[C@@H](CC(C)C)C(=O)N(C)[C@@H](Cc2ccccc2)C(=O)N[C@@H](CC(C)C)C(=O)N(C)[C@@H](Cc2ccccc2)C(=O)N(C)[C@@H](C)C(=O)N[C@@H]([C@@H](C)O)C1=O [pd392] ([NMeA]L[NMeL][NMeF]L[NMeF][NMeA]T[NBuGly][NMeAbu(3,3-F2-piperidino)]D-Piperidide; lactam N-11) | 3.5

Same assay, conditions: human, Caco-2, Caco-2 (cm/sec)

Row | Structure (SMILES) | Papp [×10⁻⁶ cm/s]
4 | CCCN1CC(=O)N(C)[C@@H](CC(C)C)C(=O)N[C@@H](COCCC(C)C)C(=O)N(C)[C@@H](Cc2ccccc2)C(=O)N(C)[C@@H](C(C)C)C(=O)N[C@H](C(=O)N2CCCCC2)CC(=O)N[C@H](C(C)C)C(=O)N(C)[C@@H](Cc2ccccc2)C(=O)N[C@@H](COCC(C)(C)O)C(=O)N(C)[C@@H](CC(C)C)C(=O)N[C@@H]([C@@H](C)O)C1=O [AP01] ([dV][NMeF]S(CH2CMe2OH)[NMeL]T[NPrGly][NMeL]S(Isopentyl)[NMeF][NMeV]D-Piperidide; lactam N-11) | 1.4
5 | CCCCN1CC(=O)N(C)[C@@H](CC(C)C)C(=O)N[C@@H](COCCO)CC(=O)N(C)[C@@H](Cc2ccccc2)C(=O)N(C)[C@@H](CC(C)C)C(=O)N[C@H](C(=O)N2CCCCC2)CC(=O)N[C@H](CC(C)C)C(=O)N(C)[C@@H](CC(C)C)C(=O)N[C@@H](Cc2ccccc2)C(=O)N(C)[C@@H](CC(C)C)C(=O)N[C@@H]([C@@H](C)O)C1=O [AP21] ([dL][NMeL]F[NMeL]T[NBuGly][NMeL][X7][NMeF][NMeL]D-Piperidide; lactam N-11) | 0.21
6 | CCCCN1CC(=O)N(C)[C@@H](Cc2ccccc2)C(=O)NC[C@@H](COCCO)C(=O)N(C)[C@@H](CC(C)C)C(=O)N[C@@H]([C@@H](C)O)C(=O)N(CCC)CC(=O)N(C)[C@@H](Cc2ccccc2)C(=O)N(C)[C@@H](CC(C)C)C(=O)N[C@@H](CC(C)C)C(=O)N(C)[C@@H](CC(C)C)C(=O)N[C@H](C(=O)N2CCCCC2)CC1=O [AP133] ([NBuGly][NMeF][X9][NMeL]T[NPrGly][NMeF][NMeL]L[NMeL]D-Piperidide; lactam N-11) | 1.8
7 | CC[C@H]1C(=O)N[C@@H](CCCCO)C(=O)N(C)[C@@H](CC(C)C)C(=O)N(C)[C@@H](Cc2cccc(Cl)c2)C(=O)N[C@@H](CC(C)C)C(=O)N(C)[C@@H](CCc2ccccc2)C(=O)N(C)[C@@H](CC(C)C)C(=O)N[C@@H]([C@@H](C)O)C(=O)N(C)CC(=O)N(C)[C@@H](CC(C)C)C(=O)N[C@H](C(=O)N2CCCCC2)CC(=O)N1C [Compound B09] ([NMeAbu][X6][NMeL][NMePhe(3-Cl)]L[NMehPhe][NMeL]T[Sar][NMeL]D-Piperidide; lactam N-11) | 0.31
8 | CCCN1CC(=O)N(C)[C@@H](Cc2cccc(Cl)c2)C(=O)N(C)[C@@H](CC(C)C)C(=O)N[C@@H](COC[C@H](C)O)C(=O)N(C)[C@@H](CC(C)C)C(=O)N[C@H](C(=O)N2CCCCC2)CC(=O)N(C)CC(=O)N(C)[C@@H](Cc2ccccc2)C(=O)NC([C@@H](C)CC)C(=O)N(C)[C@@H](CC(C)C)C(=O)N[C@@H]([C@@H](C)O)C1=O (stereo partly drawn) [AP68] ([Sar][NMeF][ξIle][NMeL]T[NPrGly][NMePhe(3-Cl)][NMeL]S(X3)[NMeL]D-Piperidide; lactam N-11) | 0.24
9 | CCCCN1CC(=O)N(C)[C@@H](CC(C)C)C(=O)N[C@@H](COC(C)(C)C)C(=O)N(C)[C@@H](Cc2ccccc2)C(=O)N(C)[C@@H](CC(C)C)C(=O)N[C@H](C(=O)N2CCCCC2)CC(=O)N[C@H](C(C)C)C(=O)N(C)[C@@H](C(C)C)C(=O)N[C@@H](Cc2ccc(C(=O)NS(C)(=O)=O)c(OC)c2)C(=O)N(C)[C@@H](CC(C)C)C(=O)N[C@@H]([C@@H](C)O)C1=O [AP135] ([dV][NMeV][Phe(3-OMe,4-CONHMs)][NMeL]T[NBuGly][NMeL]S(tBu)[NMeF][NMeL]D-Piperidide; lactam N-11) | 0.88
10 | CC(C)C[C@H]1C(=O)N[C@H](C(=O)N2CCCCC2)CC(=O)N(C)[C@@H](C)C(=O)N[C@@H](Cc2ccc(O)c(F)c2)C(=O)N(C)[C@@H](CC(C)C)C(=O)N(C)[C@@H](CC(C)C)C(=O)N[C@@H](C(C)C)C(=O)N(C)[C@@H](Cc2ccccc2)C(=O)N(C)[C@@H](CC(C)C)C(=O)N[C@@H]([C@@H](C)O)C(=O)N(C)CC(=O)N1C [pd122] ([NMeA][Tyr(3-F)][NMeL][NMeL]V[NMeF][NMeL]T[Sar][NMeL]D-Piperidide; lactam N-11) | 0.46
11 | CC[C@H](C)[C@H]1C(=O)N[C@@H](C(C)C)C(=O)N(C)CC(=O)N(C)[C@@H](CC(C)C)C(=O)N[C@H](C(=O)N2CCCCC2)CC(=O)N(C)[C@@H](C)C(=O)N[C@@H](COC[C@@H](C)O)C(=O)N(C)[C@@H](CC(C)C)C(=O)N(C)[C@@H](Cc2ccccc2)C(=O)N[C@@H](CC(C)C)C(=O)N(C)[C@@H](Cc2ccccc2)C(=O)N1C [AP86] ([NMeA]S(Propyl(2R-OH))[NMeL][NMeF]L[NMeF][NMeI]V[Sar][NMeL]D-Piperidide; lactam N-11) | 3.7
12 | CC(C)CCOC[C@@H]1NC(=O)[C@H](CC(C)C)N(C)C(=O)CN(C)C(=O)[C@H]([C@@H](C)O)NC(=O)[C@H](CC(C)C)N(C)C(=O)[C@H](COCCC(C)(C)O)NC(=O)[C@H](Cc2ccccc2)N(C)C(=O)[C@@H](C(C)C)NC(=O)C[C@@H](C(=O)N2CCCCC2)NC(=O)[C@H](CC(C)C)N(C)C(=O)[C@H](Cc2ccccc2)N(C)C1=O [AP51] ([dV][NMeF]S(Butyl(3-Me,3-OH))[NMeL]T[Sar][NMeL]S(Isopentyl)[NMeF][NMeL]D-Piperidide; lactam N-11) | 1.4
13 | CCCCN1CC(=O)N(C)[C@@H](Cc2ccccc2)C(=O)N(C)[C@@H](CC(C)C)C(=O)N[C@@H](COC(C)(C)C)C(=O)N(C)[C@@H](CC(C)C)C(=O)N[C@H](C(=O)N2CCCCC2)CC(=O)N(C)CC(=O)N(C)[C@@H](CCc2ccc(C(=O)NC)c(OC)c2)C(=O)N[C@@H](C(C)C)C(=O)N(C)[C@@H](CC(C)C)C(=O)N[C@@H]([C@@H](C)O)C1=O [AP231] ([Sar][NMeHph(3-OMe-4-CONHMe)]V[NMeL]T[NBuGly][NMeF][NMeL]S(tBu)[NMeL]D-Piperidide; lactam N-11) | 1

Same assay, conditions: human, Caco-2, Caco-2 (cm/sec) Papp

Row | Structure (SMILES) | Papp [×10⁻⁶ cm/s]
14 | CC[C@H](C)[C@@H]1NC(=O)[C@H](Cc2ccccc2)N(C)C(=O)[C@H](C)N(C)C(=O)[C@H](CC(C)C)N(C)C(=O)[C@H](Cc2ccccc2)N(C)C(=O)CCN(C)C(=O)C[C@@H](C(=O)N(C)[C@@H](Cc2ccccc2)C(=O)N(C)[C@@H](Cc2ccccc2)C(=O)N[C@@H](C)C(=O)N2CCCCC2)NC(=O)[C@H]([C@@H](C)O)NC(=O)[C@H](CC(C)C)N(C)C(=O)[C@H](CC(C)C)N(C)C1=O [pd239] ([NMeβAla][NMeF][NMeL][NMeA][NMeF]I[NMeL][NMeL]TD[NMeF][NMeF]A-Piperidide; lactam N-10) | 0.065
15 | CC(C)C[C@@H]1NC(=O)[C@H](Cc2ccccc2)N(C)C(=O)[C@H]([C@@H](C)O)NC(=O)[C@H](Cc2ccccc2)NC(=O)[C@H](Cc2ccccc2)N(C)C(=O)C[C@@H](C(=O)N2CCCCC2)NC(=O)[C@H](C)N(C)C(=O)[C@H](CC(C)C)N(C)C(=O)CN(C)C(=O)[C@H](CC(C)C)N(C)C(=O)[C@H](Cc2ccccc2)N(C)C1=O [pd230] ([NMeF]FT[NMeF]L[NMeF][NMeL][Sar][NMeL][NMeA]D-Piperidide; lactam N-11) | 0.25

Same assay, conditions: human, Caco-2, Caco-2 (membrane permeability)

Row | Structure (SMILES) | Papp [×10⁻⁶ cm/s]
16 | CNC(=O)COC[C@@H]1NC(=O)[C@H](CC(C)C)N(C)C(=O)C[C@@H](C(=O)N2CCCCC2)NC(=O)[C@H](CC(C)C)N(C)C(=O)CN(C)C(=O)[C@H]([C@@H](C)O)NC(=O)[C@H](CC(C)C)N(C)C(=O)[C@H](CCc2ccccc2)N(C)C(=O)[C@H](CC(C)C)NC(=O)[C@H](Cc2ccccc2)N(C)C(=O)[C@H](CC(C)C)N(C)C1=O [Compound I03] ([NMeL]S(CH2CONHMe)[NMeL][NMeF]L[NMehPhe][NMeL]T[Sar][NMeL]D-Piperidide; lactam N-11) | 0.25
17 | CC[C@H](C)[C@@H]1NC(=O)[C@H](CC(C)C)N(C)C(=O)[C@H](CCCC(O)C(F)(F)F)NC(=O)[C@H](Cc2ccccc2)N(C)C(=O)CN(C)C(=O)C[C@@H](C(=O)N2CCCCC2)NC(=O)[C@H](CC(C)C)N(C)C(=O)[C@H](COC(C)(C)C)NC(=O)[C@H](CC(C)C)N(C)C(=O)[C@H](Cc2ccccc2)N(C)C(=O)CN(C)C1=O (stereo partly drawn) [Compound D17] ([Sar][NMeF][X12][NMeL]I[Sar][NMeF][NMeL]S(tBu)[NMeL]D-Piperidide; lactam N-11) | 1
18 | CC[C@H](C)[C@H]1C(=O)N[C@@H]([C@@H](C)O)C(=O)N(C)CC(=O)N(C)[C@@H](CC(C)C)C(=O)N[C@H](C(=O)N2CCCCC2)CC(=O)N(C)[C@@H](C(C)C)C(=O)N[C@@H](CCCC(O)C(F)(F)F)C(=O)N(C)[C@@H](CC(C)C)C(=O)N(C)[C@@H](Cc2ccccc2)C(=O)N[C@@H](CC(C)C)C(=O)N(C)[C@@H](Cc2ccccc2)C(=O)N1C (stereo partly drawn) [Compound D08] ([NMeV][X12][NMeL][NMeF]L[NMeF][NMeI]T[Sar][NMeL]D-Piperidide; lactam N-11) | 0.53
